Source: patent US20220372013A2, “PIPERIDINE-2,6-DIONE DERIVATIVES AND CROHN'S DISEASE TREATING” (Tianjin Hemay Pharmaceutical Sci-Tech Co., Ltd, priority 2016, published 2022)
Like-named read-outs stand apart in the source and are kept apart here. Marks after values point to notes of the source that are not given here.

Columns and labels:
[1] = tested on: DNBS-Induced Inflammatory Bowel Disease Models in Rats; assay: Biological Example 3: DNBS-induced inflammatory bowel disease models in rats; format: in vivo, Wistar rats; conditions: 30 mg/Kg i.g. qd × 7; for Body weight: Mean ± SD
Procedure: 102 male Wistar rats were fasted for 40 hours. A 5% glucose injection (10 mL/Kg) was administered subcutaneously during fasting. 72 rats with normal conditions and moderate body weight were selected from the fasting rats. The animals were randomly divided into 9 groups according to the body weight (see Table 9. Grouped Table).
(§1) The animals were anesthetized with ether after 40 hours fasting. A specially made gavage device was slowly inserted into the enteric cavity at 8 cm from the anus. The model control group and each test group were administered with 0.5 mL of 50 mg/mL DNBS in 30% ethanol solution. The normal control group was administered with 0.5 mL of 30% ethanol solution. The animals were inverted in anesthesia for 15 minutes. The day when the model was prepared was day 0 of the experiment. After 4 hours of DNBS induction, the corresponding drug or the corresponding volume of 1% CMC-Na was administered once per day. On day 7 of the experiment, the animals were euthanized to score the colon adhesion degree, measure the length of colon and ulcer area, weigh colon and calculate the colon weight to length ratio.
(§2) One-way ANOVA analysis of the length of colon and colon weight per length of rats was performed by SPSS22. Statistical analyses between groups were performed. The adhesion degree was scored. Mann-Whitney U non-parametric test was performed on ulcer area. Statistical analyses between groups were performed.
(§3) Calculation Formula of Inhibitory rate of weight increase per length: (Colon weight to length ratio in model group−Colon weight to length ratio in administration group)/(Colon weight to length ratio in model group−Colon weight to length ratio in blank group)

[2] = tested on: DNBS-Induced Inflammatory Bowel Disease Models in Rats; assay: Biological Example 4: DNBS-induced inflammatory bowel disease models in rats; format: in vivo, Wistar rats; conditions: 30 mg/Kg i.g. qd × 7; for Body weight: Mean ± SD; for inhibition in vivo at 30 mg/kg: Rattus norvegicus, po, 168 h
Procedure: 102 male Wistar rats were fasted for 72 hours. A 5% glucose injection was administered subcutaneously twice during fasting. 88 rats with normal conditions and moderate body weight were selected from the fasting rats. The animals were randomly divided into 11 groups according to the body weight (see Table 11. Grouped Table).
as §1, with “72” for “40”
as §2, §3

## COCCN1C(=O)CCC(N2C(=O)c3cccc(N)c3C2=O)C1=O (stereo not shown) [Example 27, 4-amino-2-(1-(2-methoxyethyl)-2,6-dioxopiperidin-3-yl)isoindolin-1,3-dione]
[1]; day 7
  Adhesion Degree of Colon: 0.9 ± 0.4 point
  Colon weight to length ratio: 109 ± 12 mg/cm
  Inhibitory rate of colon adhesion: 47.1# %
  Inhibitory rate of ulcer area of colon: 99.7## %
  Inhibitory rate of weight increase per length: 58.2## %
  Ulcer area of colon: 0.01 ± 0.02## cm^2
[1]; Day 0
  Body weight: 135.4 ± 4.9 g
[1]; Day 1
  Body weight: 135.2 ± 4.2 g
[1]; Day 2
  Body weight: 136.7 ± 5.0 g
[1]; Day 3
  Body weight: 141.7 ± 7.5 g
[1]; Day 4
  Body weight: 150.1 ± 9.2 g
[1]; Day 5
  Body weight: 159.1 ± 10.3 g
[1]; Day 6
  Body weight: 165.2 ± 10.0 g
[1]; Day 7
  Body weight: 175.8 ± 8.2 g
[2]; day 7
  Colon weight to length ratio: 106 ± 14 mg/cm
  Ulcer area of colon: 0.4 ± 0.6 cm^2
[2]; Day 1
  Body weight: 125.5 ± 8.4 g
[2]; Day 2
  Body weight: 124.4 ± 8.1 g
[2]; Day 3
  Body weight: 125.8 ± 8.2 g
[2]; Day 4
  Body weight: 133.1 ± 9.2 g
[2]; Day 5
  Body weight: 141.6 ± 12.0 g
[2]; Day 6
  Body weight: 146.7 ± 11.8 g
[2]; Day 7
  Body weight: 156.3 ± 11.0 g
[2]; day 7, read-out: Inhibitory rate of ulcer area of colon
  inhibition in vivo at 30 mg/kg: 83.3%
[2]; day 7, read-out: Inhibitory rate of weight increase per length
  inhibition in vivo at 30 mg/kg: 65.9%
